In patent EP2951180B1, “2,6,7,8 SUBSTITUTED PURINES AS HDM2 INHIBITORS” (Merck Sharp & Dohme Corp., priority 2013, dated 2014):

target: T1, HDM2 (Homo sapiens, UniProt Q00987); experiment: HDM2 FRET assay (inhibition of binding of FITC labeled p53-pocket peptide to HDM2); conditions: 0.5 nM HDM2 (residues 17 to 125), 3nM peptide, two hour incubation at room temperature; read-out: FRET IC50
T1 construct: Thioredoxin (N); made in house; host or cells: E. coli strain BL21(DE3)Rosetta
Method in brief: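 TR-FRET with 0.5 nM His-tagged recombinant HDM2, 3 nM FITC-labelled p53 peptide and 0.25 nM Tb-anti-His antibody in PBS, 0.01% BSA, 0.01% Tween-20, 0.1% DMSO. IC50 from em520/em495 ratio over 10-point dilutions, 4-parameter logistic fit.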

T1 sequence (Q00987 17-125): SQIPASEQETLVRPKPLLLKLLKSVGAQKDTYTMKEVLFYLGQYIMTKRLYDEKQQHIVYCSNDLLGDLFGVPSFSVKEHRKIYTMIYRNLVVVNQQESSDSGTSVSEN

| Structure (SMILES) | IC50 |
| --- | --- |
| C[C@@H]1COC[C@H](C)N1c1nc2nc(-c3noc(=O)[nH]3)nc(-c3cccc(Cl)c3)c2n1C[C@H]1CC[C@H](C)CC1 [Example 16.67, 3-{6-(3-chlorophenyl)-8-[(3R,5S)-3,5-dimethylmorpholin-4-yl]-7-[(trans-4-methylcyclohexyl)methyl]-7H-purin-2-yl}-1,2,4-oxadiazol-5(4H)-one] | 6.36 nM |
| C[C@@H]1CN(C)C(=O)CN1c1nc2nc(-c3noc(=O)[nH]3)nc(-c3cccc(Cl)c3)c2n1C[C@H]1CC[C@H](C)CC1 [Example 16.68, (5R)-4-[6-(3-chlorophenyl)-7-[(trans-4-methylcyclohexyl)methyl]-2-(5-oxo-4,5-dihydro-1,2,4-oxadiazol-3-yl)-7H-purin-8-yl]-1,5-dimethylpiperazin-2-one] | 11.5 nM |
| C[C@H]1CC[C@H](Cn2c(N3CCC[C@H]3C(F)(F)F)nc3nc(-c4noc(=O)[nH]4)nc(-c4cccc(Cl)c4)c32)CC1 [Example 16.69, 3-{6-(3-chlorophenyl)-7-[(trans-4-methylcyclohexyl)methyl]-8-[(2S)-2-(trifluoromethyl)pyrrolidin-1-yl]-7H-purin-2-yl}-1,2,4-oxadiazol-5 (4H)-one] | 0.918 nM |
| C[C@H]1CC[C@H](Cn2c(N3CCC[C@H]3C(F)(F)F)nc3nc(-c4noc(=O)[nH]4)nc(-c4cncc(Cl)c4)c32)CC1 [Example 16.74, 3-{6-(5-chloropyridin-3-yl)-7-[(trans-4-methylcyclohexyl)methyl]-8-[(2S)-2-(trifluoromethyl)pyrrolidin-1-yl]-7H-purin-2-yl}-1,2,4-oxadiazol-5(4H)-one] | 0.585 nM |
| CC(C)[C@@H]1COCCN1c1nc2nc(-c3n[nH]c(=O)o3)nc(-c3cccc(Cl)c3)c2n1C[C@H]1CC[C@H](C)CC1 [Example 16.75, 5-{6-(3-chlorophenyl)-7-[(trans-4-methylcyclohexyl)methyl]-8-[(3R)-3-(1-methylethyl)morpholin-4-yl]-7H-purin-2-yl}-1,3,4-oxadiazol-2(3H)-one] | 14.7 nM |
| CC[C@H](Nc1nc2nc(-c3n[nH]c(=O)o3)nc(-c3cccc(Cl)c3)c2n1C[C@H]1CC[C@H](C)CC1)c1cccc(F)c1 [Example 16.76, 5-{6-(3-chlorophenyl)-8-{[(1S)-1-(3-fluorophenyl)propyl]amino}-7-[(trans-4-methylcyclohexyl)methyl]-7H-purin-2-yl}-1,3,4-oxadiazol-2(3H)-one] | 13.2 nM |
| C[C@H]1CC[C@H](Cn2c(N3CCOCC34CC4)nc3nc(-c4noc(=O)[nH]4)nc(-c4cccc(Cl)c4)c32)CC1 [Example 16.79, 3-[6-(3-chlorophenyl)-7-[(trans-4-methylcyclohexyl)methyl]-8-(7-oxa-4-azaspiro[2.5]oct-4-yl)-7H-purin-2-yl]-1,2,4-oxadiazol-5(4H)-one] | 21.6 nM |
| C[C@H]1CC[C@H](Cn2c(N3CCOCC34CCC4)nc3nc(-c4noc(=O)[nH]4)nc(-c4cccc(Cl)c4)c32)CC1 [Example 16.80, 3-[6-(3-chlorophenyl)-7-[(trans-4-methylcyclohexyl)methyl]-8-(8-oxa-5-azaspiro[3.5]non-5-yl)-7H-purin-2-yl]-1,2,4-oxadiazol-5(4H)-one] | 8.7 nM |
| C[C@H]1CC[C@H](Cn2c(N3CCO[C@H]4CCC[C@@H]43)nc3nc(-c4noc(=O)[nH]4)nc(-c4cccc(Cl)c4)c32)CC1 [Example 16.81, 3-{6-(3-chlorophenyl)-8-[(4aS,7aS)-hexahydrocyclopenta [b][1,4]oxazin-4(4aH)-yl]-7-[(trans-4-methylcyclohexyl)methyl]-7H-purin-2-yl}-1,2,4-oxadiazol-5(4H)-one] | 105 nM |
| C[C@H]1CC[C@H](Cn2c(N3CCO[C@@H]4CCC[C@H]43)nc3nc(-c4noc(=O)[nH]4)nc(-c4cccc(Cl)c4)c32)CC1 [Example 16.82, 3-{6-(3-chlorophenyl)-8-[(4aR,7aR)-hexahydrocyclopenta [b][1,4]oxazin-4(4aH)-yl]-7-[(trans-4-methylcyclohexyl)methyl]-7H-purin-2-yl}-1,2,4-oxadiazol-5(4H)-one] | 1.1 nM |
